In US12071411B2, “Inhibitors of HIF-2α and methods of use thereof” (ARCUS BIOSCIENCES, INC., priority 2021, dated 2024):

Legend:
HIF-2α [1] = target: T1, HIF-2α (Homo sapiens, UniProt Q99814); assay: HIF-2α Luciferase Reporter Assay (serum), HRE-luciferase 786-0 cells in 100% human serum; format: cell-based; conditions: for IC50: 100% human serum, 786-0 reporter cells, overnight incubation, read-out: Serum Potency; for Serum Shift (approximate): ratio of IC50 in 100% serum to IC50 in serum free conditions
T1 sequence (Q99814 whole entry): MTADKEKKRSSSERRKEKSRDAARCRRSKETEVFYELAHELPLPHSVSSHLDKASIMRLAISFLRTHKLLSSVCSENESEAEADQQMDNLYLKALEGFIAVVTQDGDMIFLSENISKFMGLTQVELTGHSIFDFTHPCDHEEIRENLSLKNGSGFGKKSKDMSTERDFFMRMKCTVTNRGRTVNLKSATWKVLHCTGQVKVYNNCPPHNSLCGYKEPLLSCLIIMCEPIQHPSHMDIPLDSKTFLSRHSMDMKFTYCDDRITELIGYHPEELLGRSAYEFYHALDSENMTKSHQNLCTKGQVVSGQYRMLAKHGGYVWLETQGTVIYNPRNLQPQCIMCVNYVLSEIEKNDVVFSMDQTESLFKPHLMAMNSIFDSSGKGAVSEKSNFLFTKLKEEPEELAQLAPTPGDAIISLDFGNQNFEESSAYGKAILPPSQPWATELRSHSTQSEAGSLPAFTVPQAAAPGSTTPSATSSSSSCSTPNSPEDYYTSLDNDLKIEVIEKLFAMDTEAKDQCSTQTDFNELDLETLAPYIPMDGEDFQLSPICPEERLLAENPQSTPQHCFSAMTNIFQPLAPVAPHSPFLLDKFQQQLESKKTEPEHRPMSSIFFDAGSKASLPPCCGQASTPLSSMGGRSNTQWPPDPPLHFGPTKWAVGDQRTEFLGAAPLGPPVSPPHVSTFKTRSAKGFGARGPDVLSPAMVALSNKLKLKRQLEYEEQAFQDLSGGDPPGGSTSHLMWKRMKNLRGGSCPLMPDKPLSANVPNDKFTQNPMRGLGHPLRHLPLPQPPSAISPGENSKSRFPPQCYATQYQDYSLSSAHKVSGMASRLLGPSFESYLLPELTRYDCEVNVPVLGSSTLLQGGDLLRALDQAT
Method in brief: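 786-0 cells stably expressing an HRE-luciferase reporter were plated and rested 3 h. They were then treated overnight at 37 °C with compound diluted in 100% human serum. Serum was replaced with Opti-MEM, ONE-Glo luminescence was read, and IC50 came from a 4-parameter logistic fit.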

HIF-2α [2] = target: T1, HIF-2α; assay: HIF-2α Luciferase Reporter Assay (serum free) in HIF-Luc-786-0 cells; format: cell-based; conditions: Opti-MEM, 786-0 reporter cells, 20 hours incubation
Method in brief: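 786-0 cells stably transduced with HIF luciferase reporter, 20,000 cells/well in serum-free Opti-MEM, compounds (50 uM downward, 1% DMSO) 20 h at 37 °C. ONE-Glo luminescence normalized to DMSO and no-cell controls; IC50 from four-parameter fit.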

IC50 (HIF-2α [1]) | Serum Shift (approximate) (HIF-2α [1]) | IC50 (HIF-2α [2]) | SMILES
> 1000 nM | 7 | > 1000 nM | O[C@H]1c2c(C(F)(F)F)nn([C@H]3C[C@@H](COC(F)F)C3)c2CC1(F)F [Example 103, (4S)-1-[3-(difluoromethoxymethyl)cyclobutyl]-5,5-difluoro-3-(trifluoromethyl)-4,6-dihydrocyclopenta[c]pyrazol-4-ol]
100 to 1000 nM | 2 | 100 to 1000 nM | O=S1(=O)CC(Cn2nc(C(F)(F)F)c3c2CC(F)(F)[C@H]3O)C1 [Example 57, (4S)-1-[(1,1-dioxothietan-3-yl)methyl]-5,5-difluoro-3-(trifluoromethyl)-4,6-dihydrocyclopenta[c]pyrazol-4-ol]
100 to 1000 nM | 7 | 100 to 1000 nM | O[C@H]1c2c(C(F)(F)F)nn(C3CC4(C3)CC(F)(F)C4)c2C[C@H]1F [Example 67, (4S,5R)-1-{6,6-difluorospiro[3.3]heptan-2-yl}-5-fluoro-3-(trifluoromethyl)-4,6-dihydrocyclopenta[c]pyrazol-4-ol]
> 1000 nM | 17 | < 100 nM | O[C@H]1c2c(C(F)(F)F)nn([C@@H]3CCC[C@H](OC(F)F)C3)c2CC1(F)F (racemic) [Example 112, (4S)-1-[(1R,3S)-3-(difluoromethoxy)cyclohexyl]-5,5-difluoro-3-(trifluoromethyl)-1H,4H,5H,6H-cyclopenta[c]pyrazol-4-ol and (4S)-1-[(1S,3R)-3-(difluoromethoxy)cyclohexyl]-5,5-difluoro-3-(trifluoromethyl)-1H,4H,5H,6H-cyclopenta[c]pyrazol-4-ol]
> 1000 nM | 7 | 100 to 1000 nM | O[C@H]1c2c(C(F)(F)F)nn([C@@H]3COCC(F)(F)C3)c2CC1(F)F [Example 87, (4S)-1-[(3S)-5,5-difluorooxan-3-yl]-5,5-difluoro-3-(trifluoromethyl)-1H,4H,5H,6H-cyclopenta[c]pyrazol-4-ol]
< 100 nM | 9 | < 100 nM | CO[C@H](CCn1nc(C(F)(F)F)c2c1[C@H](F)C(F)(F)[C@H]2O)C(F)(F)F (single isomer, unassigned) [148/149 DIAST-1]
100 to 1000 nM | 2 | 100 to 1000 nM | CS(=O)(=O)CCn1nc(C(F)(F)F)c2c1CC(F)(F)[C@H]2O [Example 56, (4S)-5,5-difluoro-1-(2-methylsulfonylethyl)-3-(trifluoromethyl)-4,6-dihydrocyclopenta[c]pyrazol-4-ol]
> 1000 nM | 3 | > 1000 nM | O=S1(=O)CC2(CC(n3nc(C(F)(F)F)c4c3CC(F)(F)[C@H]4O)C2)C1 [Example 127, (4S)-1-(2,2-dioxo-2λ^6-thiaspiro[3.3]heptan-6-yl)-5,5-difluoro-3-(trifluoromethyl)-4,6-dihydrocyclopenta[c]pyrazol-4-ol]
> 1000 nM | 4 | < 100 nM | O[C@H]1c2c(C(F)(F)F)nn([C@H]3CCCC(F)(F)C3)c2[C@@H](F)[C@H]1F (single isomer, unassigned) [136/137 DIAST-1]
> 1000 nM | 10 | 100 to 1000 nM | O[C@H]1c2c(C(F)(F)F)nn(C[C@H](F)C3CC3)c2CCC1(F)F (single isomer, unassigned) [26/27 DIAST-2]
> 1000 nM | 5 | 100 to 1000 nM | O[C@H]1c2c(C(F)(F)F)nn([C@@H]3C[C@@H]4[C@H](C3)C4(F)F)c2CC1(F)F (single isomer, unassigned) [125/126 DIAST-2]
> 1000 nM | 9 | 100 to 1000 nM | O[C@H]1c2c(C(F)(F)F)nn([C@H]3C[C@@H]4[C@H](C3)C4(F)F)c2CC1(F)F (single isomer, unassigned) [125/126 DIAST-1]
100 to 1000 nM | 9 | < 100 nM | O[C@@H]1c2c(C(F)(F)F)nn([C@H]3CC[C@H](F)[C@H](F)C3)c2[C@H](F)C1(F)F (single isomer, unassigned) [Example 154]
> 1000 nM | 18 | < 100 nM | O[C@H]1c2c(C(F)(F)F)nn([C@H]3C[C@H](F)C[C@H](F)C3)c2CC1(F)F [Example 71, (4S)-1-[(3R,5S)-3,5-difluorocyclohexyl]-5,5-difluoro-3-(trifluoromethyl)-4,6-dihydrocyclopenta[c]pyrazol-4-ol]
> 1000 nM | 17 | 100 to 1000 nM | O[C@H]1c2c(C(F)(F)F)nn(CCCOC(F)(F)F)c2[C@H](F)CC1(F)F (single isomer, unassigned) [129/130 DIAST-2]
> 1000 nM | 23 | < 100 nM | O[C@H]1c2c(C(F)(F)F)nn(C3CCO[C@H](C(F)(F)F)C3)c2CC1(F)F (single isomer, unassigned) [94/95 DIAST-2]
> 1000 nM | 2 | 100 to 1000 nM | O=S1(=O)CC(Cn2nc(C(F)(F)F)c3c2C[C@@H](F)[C@H]3O)C1 [Example 84, 3-{[(4S,5R)-5-fluoro-4-hydroxy-3-(trifluoromethyl)-1H,4H,5H,6H-cyclopenta[c]pyrazol-1-yl]methyl}-1λ^6-thietane-1,1-dione]
> 1000 nM | 19 | < 100 nM | O[C@H]1c2c(C(F)(F)F)nn(C3CCC[C@H](OC(F)F)C3)c2CC1(F)F (mixture of isomers) [Example 108, (4S)-1-[(1S,3S)-3-(difluoromethoxy)cyclohexyl]-5,5-difluoro-3-(trifluoromethyl)-1H,4H,5H,6H-cyclopenta[c]pyrazol-4-ol and (4S)-1-[(1R,3R)-3-(difluoromethoxy)cyclohexyl]-5,5-difluoro-3-(trifluoromethyl)-1H,4H,5H,6H-cyclopenta[c]pyrazol-4-ol]
> 1000 nM | 119 | < 100 nM | O[C@H]1c2c(C(F)(F)F)nn(-c3ccc(Cl)c(Cl)c3)c2CC1(F)F [Example 118, (4S)-1-(3,4-dichlorophenyl)-5,5-difluoro-3-(trifluoromethyl)-4,6-dihydrocyclopenta[c]pyrazol-4-ol]
> 1000 nM | 17 | 100 to 1000 nM | O[C@H]1c2c(C(F)(F)F)nn([C@H]3C[C@H](COC(F)F)C3)c2CC1(F)F [Example 102, (4S)-1-[3-(difluoromethoxymethyl)cyclobutyl]-5,5-difluoro-3-(trifluoromethyl)-4,6-dihydrocyclopenta[c]pyrazol-4-ol]
> 1000 nM | 8 | < 100 nM | O[C@H]1c2c(C(F)(F)F)nn(C3CCC(F)(F)CC3)c2[C@@H](F)[C@H]1F [Example 132, (4S,5S,6R)-1-(4,4-difluorocyclohexyl)-5,6-difluoro-3-(trifluoromethyl)-5,6-dihydro-4H-cyclopenta[c]pyrazol-4-ol]
> 1000 nM | 7 | < 100 nM | O[C@H]1c2c(C(F)(F)F)nn([C@H]3CC[C@H](F)CC3)c2CC1(F)F [Example 96, (4S)-5,5-difluoro-1-(4-fluorocyclohexyl)-3-(trifluoromethyl)-4,6-dihydrocyclopenta[c]pyrazol-4-ol]
> 1000 nM | 3 | 100 to 1000 nM | O=S1(=O)CC(Cn2nc(C(F)(F)F)c3c2[C@H](F)C(F)(F)[C@H]3O)C1 (single isomer, unassigned) [144/145 DIAST-1]
> 1000 nM | 18 | 100 to 1000 nM | O[C@H]1c2c(C(F)(F)F)nn([C@@H]3CC[C@@H](F)[C@@H](F)C3)c2[C@H](F)C1(F)F [Example 153, (4S,6S)-1-[(1R,3S,4R)-3,4-difluorocyclohexyl]-5,5,6-trifluoro-3-(trifluoromethyl)-4,6-dihydrocyclopenta[c]pyrazol-4-ol]
100 to 1000 nM | 1 | 100 to 1000 nM | CC(C#N)CCn1nc(C(F)(F)F)c2c1CC(F)(F)[C@H]2O (stereo partly drawn) [Example 55, 4-[(4S)-5,5-difluoro-4-hydroxy-3-(trifluoromethyl)-4,6-dihydrocyclopenta[c]pyrazol-1-yl]-2-methylbutanenitrile]
100 to 1000 nM | 8 | < 100 nM | O[C@H]1c2c(C(F)(F)F)nn([C@@H]3CC[C@@H](F)[C@@H](F)C3)c2[C@@H](F)C1(F)F [Example 156, (4S,6R)-1-[(1R,3S,4R)-3,4-difluorocyclohexyl]-5,5,6-trifluoro-3-(trifluoromethyl)-4,6-dihydrocyclopenta[c]pyrazol-4-ol]
> 1000 nM | 17 | 100 to 1000 nM | CCC(CCn1nc(C(F)(F)F)c2c1CCC(F)(F)[C@H]2O)C(F)(F)F (stereo partly drawn) [Example 43, (4S)-5,5-difluoro-3-(trifluoromethyl)-1-[3-(trifluoromethyl)pentyl]-6,7-dihydro-4H-indazol-4-ol]
> 1000 nM | 6 | < 100 nM | O[C@H]1c2c(C(F)(F)F)nn([C@H]3CCC(F)(F)[C@H](F)C3)c2CC1(F)F [Example 122, (4S)-5,5-difluoro-1-[(1S,3R)-3,4,4-trifluorocyclohexyl]-3-(trifluoromethyl)-4,6-dihydrocyclopenta[c]pyrazol-4-ol]

SMILES | IC50 (HIF-2α [1]) | Serum Shift (approximate) (HIF-2α [1]) | IC50 (HIF-2α [2])
C[C@@H](C#N)CCn1nc(C(F)(F)F)c2c1CCC(F)(F)[C@H]2O [Example 99, (2R)-4-[(4S)-5,5-difluoro-4-hydroxy-3-(trifluoromethyl)-6,7-dihydro-4H-indazol-1-yl]-2-methylbutanenitrile] | 100 to 1000 nM | 3 | < 100 nM
